The source of these data is the NIST ThermoML archive (doi:10.1016/j.fluid.2013.06.021).

For this series the following is noted: 298.15 K, 101.33 kPa, Liquid; for viscosity: Capillary tube (Ostwald / Ubbelohde) method; for speed of sound: Sing-around technique in a fixed-path interferometer; for mass density: Vibrating tube method.

± gives the expanded uncertainty stated by the source.

The viscosity is the resistance of a fluid to flow. In general, speed of sound refers to how fast a sound wave travels through the sample. As a reminder, the mass density is the mass of a sample divided by its volume. `CCCCOCCO` [2-butoxyethan-1-ol]: the viscosity amounted to 2.885 ± 0.12 mPa·s, the speed of sound is 1306 ± 0.7 m/s and the mass density is 896.312 ± 0.083 kg/m3.

As for `CCCCO` [butan-1-ol], the viscosity is given as 2.625 ± 0.12 mPa·s, the speed of sound is 1240.6 ± 0.71 m/s and the mass density was 805.986 ± 0.12 kg/m3.

With `CCC(C)O` (stereo not given) [butan-2-ol], the viscosity turned out to be 3.075 ± 0.12 mPa·s, the speed of sound was 1213.3 ± 0.81 m/s and the mass density is on record as 802.563 ± 0.14 kg/m3.

With `CCCO` [propan-1-ol], the viscosity amounted to 1.984 ± 0.12 mPa·s, the speed of sound worked out at 1207 ± 0.8 m/s and the mass density amounted to 800.13 ± 0.14 kg/m3.

As to `CC(C)O` [propan-2-ol], the viscosity came to 2.111 ± 0.12 mPa·s, the speed of sound came out at 1140.6 ± 0.64 m/s and the mass density came out at 781.588 ± 0.12 kg/m3.
